Square brackets hold non-standard residues; d marks the D form. Ends that are not written are not given here.
Experiments:
TLR4 [1] = molecular target: T1, TLR4 (Mus musculus, UniProt Q9QUK6); test: LPS-induced TNFα in immortalised murine macrophages, ELISA; assay type: cell-based; set-up: endogenous in cells; immortalised murine bone-marrow-derived macrophages; conditions: peptide 1, 3, 6.25 and 12.5 μM, 20 ng/ml LPS, 6 h
T1 sequence (Q9QUK6 26-835): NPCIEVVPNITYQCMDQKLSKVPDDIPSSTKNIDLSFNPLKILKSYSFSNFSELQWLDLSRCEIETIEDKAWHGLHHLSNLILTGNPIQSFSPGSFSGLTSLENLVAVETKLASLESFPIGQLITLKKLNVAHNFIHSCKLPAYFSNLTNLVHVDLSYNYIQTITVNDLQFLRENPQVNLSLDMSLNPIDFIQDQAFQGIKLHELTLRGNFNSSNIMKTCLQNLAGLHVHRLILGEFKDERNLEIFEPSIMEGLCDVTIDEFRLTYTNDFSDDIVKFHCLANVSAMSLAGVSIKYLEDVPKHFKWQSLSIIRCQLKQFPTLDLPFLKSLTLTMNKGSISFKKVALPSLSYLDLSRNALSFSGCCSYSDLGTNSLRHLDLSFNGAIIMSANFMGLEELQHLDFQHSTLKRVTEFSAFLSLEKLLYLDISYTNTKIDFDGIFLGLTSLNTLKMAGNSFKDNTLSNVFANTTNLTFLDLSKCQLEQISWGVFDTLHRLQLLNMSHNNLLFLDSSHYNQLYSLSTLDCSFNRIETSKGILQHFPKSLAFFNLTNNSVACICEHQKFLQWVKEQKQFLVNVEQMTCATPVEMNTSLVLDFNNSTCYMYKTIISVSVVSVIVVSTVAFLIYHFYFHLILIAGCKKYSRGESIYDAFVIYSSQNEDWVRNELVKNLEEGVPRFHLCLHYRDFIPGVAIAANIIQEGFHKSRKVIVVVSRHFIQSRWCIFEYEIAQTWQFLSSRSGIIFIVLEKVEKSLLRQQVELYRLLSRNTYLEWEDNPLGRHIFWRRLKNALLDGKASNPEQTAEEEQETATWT
T1 sequence (Q9JHF9 19-160 partner): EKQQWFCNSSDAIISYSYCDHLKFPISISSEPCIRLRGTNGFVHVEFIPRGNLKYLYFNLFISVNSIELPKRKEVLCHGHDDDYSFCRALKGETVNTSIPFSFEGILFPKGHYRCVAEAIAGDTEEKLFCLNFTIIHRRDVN

TLR4 [2] = test: LPS-induced TNFα in primary human PBMC, ELISA; assay type: cell-based; conditions: 6 h; for inhibition of LPS-induced hTNFα production: peptide 1, 5 or 25 μM 1 h before 10 ng/ml LPS; for inhibitory potential compared to parental A464 (alanine scan): peptide 5 μM, 10 ng/ml LPS
Procedure: FIGS. 13A and B are bar charts showing the effect of A467 and A464 on LPS-induced TNFα production and on cell viability in primary human cells. Peripheral blood mononuclear cells (PBMCs) were seeded in 96 well plates (1 ×10^6 cells/ml) 24 hours before treatment. A467 (SEQ ID NO. 23) and A464 (SEQ ID NO. 20) were added to the cells at 1, 5 and 25 μM 1 hour before stimulating with 10 ng/ml LPS. The peptides were added into the unstimulated control wells at 25 μM. Supernatants were collected 6 hours after stimulation and assayed for TNFα production by ELISA (A). The cells were assayed for viability by the MTT assay (B). No peptides were added to the control wells (black bars). Data is representative of at least three experiments each performed in triplicate and is expressed as mean±s.d;
(§1) FIGS. 14A and B are bar charts showing the comparison of the inhibitory effect of the L- and D-forms of A464 on LPS-induced TNFα in primary human and murine cells. PBMC (1×10^6 cells/ml, (A)) or immortalised murine macrophages (1.5×10^5 cells/ml, (B)) were seeded in 96 well plates 24 hours before treatment. L-form and D-form A464 peptides (with the 9R delivery peptide on the C-terminus, SEQ ID NO. 20) were added to the cells at a concentration of 1, 5 or 25 μM 1 hour before stimulating with 10 ng/ml LPS. Supernatants were collected 6 hours after stimulation and assayed for either human (A) or murine (B) TNFα production by ELISA. No peptides were added to the control wells (black bars). Data is representative of at least three experiments each performed in triplicate and is expressed as mean±s.d;
(§2) FIGS. 15A and B are bar charts showing the effect of the D-form A464 peptide with the TAT delivery sequence on LPS induced TNFα in primary human and murine cells. PBMC (A) and immortalised murine macrophages (B) were seeded in 96 well plates 24 hours before treatment. D-form of A467 (SEQ ID NO. 37) and A464 (SEQ ID NO. 36) with the TAT delivery sequence were added to the cells at a concentration of 1, 5 or 25 μM 1 hour before stimulating with 10 ng/ml LPS. The peptides were added into the unstimulated control wells at 25 μM. Supernatants were collected 6 hours after stimulation and assayed for either human (A) or murine (B) TNFα production by ELISA. No peptides were added to the control wells (black bars). Data is representative of at least three experiments each performed in triplicate and is expressed as mean±s.d;
(§3) FIGS. 16A and B are bar charts showing the effect of attaching 9R to the N-terminus of A464 on LPS-induced TNFα in primary human and murine cells. Immortalised murine macrophages (A) and PBMC (B) were seeded in 96 well plates 24 hours before treatment. L-form of A467 (SEQ ID NO. 39) and A464 (SEQ ID NO. 38) with the 9R-delivery sequence at the N-terminus were added to the cells at a concentration of 1, 5 or 25 μM 1 hour before stimulating with 10 ng/ml LPS. The peptides were added into the unstimulated control wells at […]. Supernatants were collected 6 hours after stimulation and assayed for either murine (A) or human (B) TNFα production by ELISA. No peptides were added to the control wells (black bars). Data is representative of at least three experiments each performed in triplicate and is expressed as mean±s.d;
FIGS. 17A and B are bar charts showing the effect of the D-form A464 with 9R at the N-terminus on LPS-induced TNFα in primary human and murine cells. Immortalised murine macrophages (A) and PBMC (B) were seeded in 96 well plates 24 hours before treatment. D-form of A467 (SEQ ID NO. 39) and A464 (SEQ ID NO. 38) peptides with the 9R-delivery sequence at N-terminus were added to the cells at a concentration of 1, 5 or 25 μM 1 hour before stimulating with 10 ng/ml LPS. The peptides were added into the unstimulated control wells at 25 μM. Supernatants were collected 6 hours after stimulation and assayed for either murine (A) or human (B) TNFα production by ELISA. No peptides were added to the control wells (black bars). […]

TLR4 [3] = molecular target: T1, TLR4; test: LPS-induced TNFα in immortalised murine macrophages, ELISA; assay type: cell-based; set-up: endogenous in cells; immortalised murine bone-marrow-derived macrophages; conditions: 6 h; for inhibition of LPS-induced mTNFα production: peptide 1, 5 or 25 μM 1 h before 10 ng/ml LPS
Procedure: as §1, §2, §3
FIGS. 17A and B are bar charts showing the effect of the D-form A464 with 9R at the N-terminus on LPS-induced TNFα in primary human and murine cells. Immortalised murine macrophages (A) and PBMC (B) were seeded in 96 well plates 24 hours before treatment. D-form of A467 (SEQ ID NO. 39) and A464 (SEQ ID NO. 38) peptides with the 9R-delivery sequence at N-terminus were added to the cells at a concentration of 1, 5 or 25 μM 1 hour before stimulating with 10 ng/ml LPS. The peptides were added into the unstimulated control wells at 25 μM. Supernatants were collected 6 hours after stimulation and assayed for either murine (A) or human (B) TNFα production by ELISA. No peptides were added to the control wells (black bars). Data is representative of at least three experiments each performed in triplicate and is expressed as mean±s.d;
FIGS. 18A and B are bar charts showing the effect of shortened A464 peptides with deletions of N- and C-terminal amino acids on LPS-induced TNFα in murine macrophages. Immortalised murine macrophages were seeded in 96 well plates (1.5×10^5 cells/ml) 24 hours before treatment. A464 peptides with a deletion of one (N-1) (SEQ ID NO. 40) or two (N-2) (SEQ ID NO. 41) amino acids from the N-terminus (A), or three (C-3) (SEQ ID NO. 42) or six (C-6) (SEQ ID NO. 43) amino acids from the C-terminus (B), were added to the cells at a concentration of 1, 5 or 25 μM 1 hour before stimulating with 10 ng/ml LPS. Peptides were added to the control wells at 25 μM. […]

cell viability = test: MTT cell viability assay, more detailed investigation of screening hits; assay type: cell-based; conditions: cell type not stated
Procedure: Cell viability was measured by assessing mitochondrial function using an MTT (3-(4,5-Dimethylthiazol-2-yl)-2,5-diphenyltetrazolium bromide) assay. Cells were seeded into 96 well plates and treated with peptides and agonists as described above in relation to the Figs. Wells containing medium only served as a blank control. To terminate treatment of cells, medium was removed and the cells were washed once with PBS. 200 μl per well of 1 mg/ml MTT in PBS was added directly to the cells and the plates were incubated at 37° C. for 14-16 hrs in the dark. MTT was then removed and 200 μl per well of dimethyl sulphoxide (DMSO) was added and cells incubated for 20 min at 37° C. in the dark, prior to absorbance being read at 595 nm on a spectrophotometer.

TLR4 [4] = molecular target: T1, TLR4; test: LPS-induced TNFα in RAW264.7 cells, ELISA; assay type: cell-based, murine; set-up: endogenous in cells; host or cells: RAW264.7; immortalised murine bone-marrow-derived macrophages; conditions: peptide 5 or 25 μM 1 h before 10 ng/ml LPS, 6 h, A464 5 μM as positive control
Procedure: FIGS. 5A and B are bar charts showing the dose-dependent inhibitory effect of A464R on LPS-induced TNFα in murine RAW264.7 cells. A464 (SEQ ID NO. 20) was added to the cells at a concentration of 5, 20 or 50 μM 1 hour before stimulating with 100 ng/ml LPS. Supernatant was collected 24 hours after stimulation and assayed for TNFα by ELISA (A) and cells were assayed for viability by the MTT assay (B.). No peptides were added to the control wells (black bars). Data is representative of at least three experiments each performed in triplicate and is expressed as mean±s.d;
FIGS. 6A and B are bar charts showing the effect of peptides derived from A46 on LPS-induced TNFα in murine RAW264.7 cells. A46 peptides were added to the cells at a concentration of 1 or 5 μM 1 hour before stimulating with 10 ng/ml LPS. Supernatants were collected 6 hours after stimulation and assayed for TNFα by ELISA. No peptides were added into the control wells (black bars). (A) peptides A461-A467 (SEQ ID NO. 17 to 23). (B) peptides A468-A4614 (SEQ ID NO. 24 to 30) (excluding A4610 SEQ ID NO. 26 and A4612 SEQ ID NO. 28). Data is representative of at least two experiments each performed in triplicate and is expressed as mean±s.d;
FIGS. 22 A and B are bar charts showing the effect of short A467 and A464 peptides, with 9R on either N- or C-terminus, on LPS- induced TNFα production in murine RAW264.7 cells. Cells were seeded in 96 well plates (1.5×10^5 cells/ml) 24 hours before treatment. Short A467 and short A464 peptides with the 9R delivery sequence on either the C-terminus (sA464C9R) (SEQ ID NO. 56) (A) or the N-terminus (sA464N9R) (SEQ ID NO. 57) (B) were added to the cells at a concentration of 5 or 25 μM 1 hour before stimulating with 10 ng/ml LPS. Normal full length A467 (SEQ ID NO. 23) and A464 (SEQ ID NO. 20) peptides were added at a concentration of 5 μM as positive controls. Supernatants were collected 6 hours after stimulation with the agonist and assayed for TNFα, by ELISA. No peptides were added to the control wells (black bars). Data is representative of at least three experiments each performed in triplicate and is expressed as mean±s.d;
Cytokine and chemokine production from cells or mouse serum was measured by ELISA using Duoset kits from R&D systems, according to the manufacturer's instructions.

With “9R-FKLI (RRRRRRRRRFKLI) [Peptide 9R-FKLI]” the “inhibition of TLR4-induced murine TNFα by shorter versions of sA464N9R” value (TLR4 [1]) was “did not”.
With “D-A464-TAT ([dK][dY][dS][dF][dK][dL][dI][dL][dA][dE][dY][dY]G[dR][dK][dK][dR][dR][dQ][dR][dR][dR])” the “inhibition of LPS-induced hTNFα production” value (TLR4 [2]) was “failed to inhibit LPS-induced hTNFα production at 1-25 μM” and the “inhibition of LPS-induced mTNFα production” value (TLR4 [3]) was “still inhibited, but only at 5-25 μM”.
For DFVNFVKDMICRRRRRRRRR [Peptide A4610], the “cell viability (MTT assay)” value (cell viability) was “reduced cell viability”.
For DSGLFDFVNFVRRRRRRRRR [Peptide A469], the “cell viability (MTT assay)” value (cell viability) was “reduced cell viability”.
With “KYSAKLILAEY-9R (KYSAKLILAEYRRRRRRRRR) [Peptide F4A]” the “inhibitory potential compared to parental A464 (alanine scan)” value (TLR4 [2]) was “reduced inhibitory potential”.
“KYSFALILAEY-9R (KYSFALILAEYRRRRRRRRR) [Peptide K5A]” was tested, and the “inhibitory potential compared to parental A464 (alanine scan)” value (TLR4 [2]) was “reduced inhibitory potential”.
For KYSFK-9R [Peptide A464C-6], the “inhibition of LPS-induced mTNFα production” value (TLR4 [3]) was “lost its ability to inhibit LPS-induced TNFα production”.
“KYSFKAILAEY-9R (KYSFKAILAEYRRRRRRRRR) [Peptide L6A]” was tested, and the “inhibitory potential compared to parental A464 (alanine scan)” value (TLR4 [2]) was “reduced inhibitory potential” and the “inhibition compared to A464 (alanine scan)” value (TLR4 [3]; peptide 5 μM, 10 ng/ml LPS) was “reduced inhibition”.
“KYSFKLALAEY-9R (KYSFKLALAEYRRRRRRRRR) [Peptide I7A]” was tested, and the “inhibitory potential compared to parental A464 (alanine scan)” value (TLR4 [2]) was “reduced inhibitory potential”.
With KYSFKLILAEYRRRRRRRRR [D-A464] the “inhibition of LPS-induced hTNFα production” value (TLR4 [2]) was “only blocked TNFα secretion at 25 μM” and the “inhibition of LPS-induced mTNFα production” value (TLR4 [3]) was “complete inhibition at 1”.
In the case of TYLYNKYSFKLRRRRRRRRR [Peptide A463], the “cell viability (MTT assay)” value (cell viability) is reported as “reduced cell viability”.
In the case of sA464C9R (SFKLILRRRRRRRRR), the “inhibition of LPS-induced TNFα by short peptides” value (TLR4 [4]) is reported as “only when the delivery sequence was at the N-terminus”.
For sA464N9R (RRRRRRRRRSFKLIL), the “inhibition of LPS-induced TNFα by short peptides” value (TLR4 [4]) was “inhibited LPS-induced TNFα production as potently as A464 (SEQ ID No. 20) at 5 μM”.

From patent US8722052B2, “Vaccinia virus protein A46 peptide and use thereof” (priority 2008, dated 2014)
